As usually defined, the IC50 is the concentration at which inhibition is half-maximal.

Chain of human GPR17 short isoform (Q13304 29-367): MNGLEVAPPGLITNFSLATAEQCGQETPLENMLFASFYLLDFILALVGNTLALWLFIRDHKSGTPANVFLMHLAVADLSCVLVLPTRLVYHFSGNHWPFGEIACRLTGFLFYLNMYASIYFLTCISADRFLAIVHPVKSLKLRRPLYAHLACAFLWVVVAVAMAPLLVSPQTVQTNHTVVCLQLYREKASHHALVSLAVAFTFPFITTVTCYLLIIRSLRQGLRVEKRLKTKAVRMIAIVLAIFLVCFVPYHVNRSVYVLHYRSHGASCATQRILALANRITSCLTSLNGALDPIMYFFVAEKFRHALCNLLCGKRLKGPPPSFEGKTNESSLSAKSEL

In the experiment the target is human GPR17 short isoform (Homo sapiens (Human), UniProt Q13304). As to the kind of experiment: GPR17 cAMP assay (hGPR17 cAMP, antagonist mode against EC80 of MDL29,951). The experiment is classed as cell-based. To be noted: CHO-K1 cells stably expressing human GPR17 short isoform; EC80 of agonist MDL29,951; forskolin 15 μM. The essentials:
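CHO-K1 cells stably expressing untagged human GPR17 short isoform, 10,000/well in HBSS/10 mM HEPES/0.1% BSA pH 7.4. Compounds added with EC80 MDL29,951 and 0.5 mM IBMX, then 15 μM forskolin 5 min later, 30 min at room temperature; cAMP by TR-FRET, normalized to reference antagonist, sigmoidal fit.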
As for `COc1nc(NS(=O)(=O)c2c[nH]c3cc(Br)ccc23)nc(OC)c1OCC(F)F` [Example 92, 6-bromo-N-[5-(2,2-difluoroethoxy)-4,6-dimethoxy-pyrimidin-2-yl]-1H-indole-3-sulfonamide], the IC50 is 0.018 µM. The compound `COc1nc(NS(=O)(=O)c2c[nH]c3cc(Cl)ccc23)nc(OC)c1CCCF` [Example 61, 6-chloro-N-[5-(3-fluoropropyl)-4,6-dimethoxy-pyrimidin-2-yl]-1H-indole-3-sulfonamide] returned a concentration for half-maximal inhibition (IC50) of 0.007 µM. The result for `COc1nc(NS(=O)(=O)c2c[nH]c3nc(Cl)ccc23)nc(OC)c1OC(F)F` [Example 205, 6-chloro-N-[5-(difluoromethoxy)-4,6-dimethoxy-pyrimidin-2-yl]-1H-pyrrolo[2,3-b]pyridine-3-sulfonamide] reads 0.049 µM. The result for `COc1nc(NS(=O)(=O)c2c[nH]c3c2ccc2cccnc23)nc(OC)c1OCCF` [Example 117, N-[5-(2-fluoroethoxy)-4,6-dimethoxy-pyrimidin-2-yl]-1H-pyrrolo[3,2-h]quinoline-3-sulfonamide] reads 0.03 µM; that for `COc1nc(NS(=O)(=O)c2csc3nc(Cl)ccc23)ncc1OCCF` [Example 27, 6-chloro-N-[5-(2-fluoroethoxy)-4-methoxy-pyrimidin-2-yl]thieno[2,3-b]pyridine-3-sulfonamide], 0.083 µM; that for `CCCc1c(OC)nc(NS(=O)(=O)c2c[nH]c3cc(Cl)ccc23)nc1OC` [Example 58, 6-chloro-N-(4,6-dimethoxy-5-propyl-pyrimidin-2-yl)-1H-indole-3-sulfonamide], 0.017 µM. Then `COc1nc(NS(=O)(=O)c2c[nH]c3cc(Cl)ccc23)ncc1OCCOC(F)F` [Example 9, 6-chloro-N-[5-[2-(difluoromethoxy)ethoxy]-4-methoxy-pyrimidin-2-yl]-1H-indole-3-sulfonamide], with 0.218 µM; and `COc1nc(NS(=O)(=O)c2c[nH]c3cc(Br)ccc23)nc(OC)c1OC(F)F` [Example 90, 6-bromo-N-[5-(difluoromethoxy)-4,6-dimethoxy-pyrimidin-2-yl]-1H-indole-3-sulfonamide], with 0.029 µM. Take `COc1nc(NS(=O)(=O)c2c[nH]c3cc(Cl)ccc23)ncc1OC1CC1` [Example 38, 6-chloro-N-[5-(cyclopropoxy)-4-methoxy-pyrimidin-2-yl]-1H-indole-3-sulfonamide]: the IC50 is 2.68 µM. On to `COc1nc(NS(=O)(=O)c2c[nH]c3c(F)c(C(F)F)ccc23)nc(OC)c1OC(F)F` [Example 249, N-[5-(difluoromethoxy)-4,6-dimethoxy-pyrimidin-2-yl]-6-(difluoromethyl)-7-fluoro-1H-indole-3-sulfonamide], for which the concentration for half-maximal inhibition (IC50) came to 0.036 µM. `COc1nc(NS(=O)(=O)c2c[nH]c3nc(C)ccc23)nc(OC)c1OC(F)F` [Example 286, N-[5-(Difluoromethoxy)-4,6-Dimethoxy-Pyrimidin-2-Yl]-6-Methyl-1H-Pyrrolo[2,3-b]Pyridine-3-Sulfonamide]: the IC50 was 0.203 µM. The result for `COc1nc(NS(=O)(=O)c2c[nH]c3cc(Cl)ccc23)nc(F)c1Br` [Example 73, N-(5-bromo-4-fluoro-6-methoxy-pyrimidin-2-yl)-6-chloro-1H-indole-3-sulfonamide] reads 0.124 µM.

With `CCc1c(OC)nc(NS(=O)(=O)c2c[nH]c3cc(Cl)ccc23)nc1OC` [Example 16, 6-chloro-N-(5-ethyl-4,6-dimethoxy-pyrimidin-2-yl)-1H-indole-3-sulfonamide], the IC50 was 0.023 µM.

`COc1nc(NS(=O)(=O)c2c[nH]c3c2ccc2cccnc23)nc(OC)c1CC(F)F` [Example 169, N-[5-(2,2-difluoroethyl)-4,6-dimethoxy-pyrimidin-2-yl]-1H-pyrrolo[3,2-h]quinoline-3-sulfonamide] came in with an IC50 of 0.02 µM. In turn, `COc1nc(NS(=O)(=O)c2csc3cc(Br)ccc23)ncc1OCC(F)F` [Example 157, 6-bromo-N-[5-(2,2-difluoroethoxy)-4-methoxy-pyrimidin-2-yl]benzothiophene-3-sulfonamide] came in with an IC50 of 0.176 µM. For the compound `COc1nc(NS(=O)(=O)c2c[nH]c3c(C(F)F)c(Cl)ccc23)ncc1CCC(F)F` [Example 209, 6-chloro-7-(difluoromethyl)-N-[5-(3,3-difluoropropyl)-4-methoxy-pyrimidin-2-yl]-1H-indole-3-sulfonamide], the concentration for half-maximal inhibition (IC50) was found to be 0.068 µM. The result for `COc1nc(NS(=O)(=O)c2csc3nc(Br)ccc23)ncc1OCC(F)F` [Example 145, 6-bromo-N-[5-(2,2-difluoroethoxy)-4-methoxy-pyrimidin-2-yl]thieno[2,3-b]pyridine-3-sulfonamide] reads 0.152 µM; that for `COc1nc(NS(=O)(=O)c2c[nH]c3nc(Br)ccc23)nc(OC)c1C` [Example 160, 6-bromo-N-(4,6-dimethoxy-5-methyl-pyrimidin-2-yl)-1H-pyrrolo[2,3-b]pyridine-3-sulfonamide], 0.011 µM.

Take `COc1nc(NS(=O)(=O)c2csc3nc(C(F)F)ccc23)nc(OC)c1CC(F)F` [Example 167, N-[5-(2,2-difluoroethyl)-4,6-dimethoxy-pyrimidin-2-yl]-6-(difluoromethyl)thieno[2,3-b]pyridine-3-sulfonamide]: the concentration for half-maximal inhibition (IC50) is 0.259 µM. Consider `COc1nc(NS(=O)(=O)c2c[nH]c3c2ccc2cccnc23)ncc1CC(F)F` [Example 222, N-[5-(2,2-difluoroethyl)-4-methoxy-pyrimidin-2-yl]-1H-pyrrolo[3,2-h]quinoline-3-sulfonamide], for which the IC50 stood at 0.291 µM.

As to `Cc1nc(NS(=O)(=O)c2c[nH]c3cc(Cl)ccc23)nc(C)c1Br` [Example 33, N-(5-bromo-4,6-dimethyl-pyrimidin-2-yl)-6-chloro-1H-indole-3-sulfonamide], the 50% inhibitory concentration (IC50) is 0.569 µM.

The compound `COc1nc(NS(=O)(=O)c2c[nH]c3c(F)c(Cl)ccc23)nc(OC)c1CC(F)F` [Example 217, 6-chloro-N-[5-(2,2-difluoroethyl)-4,6-dimethoxy-pyrimidin-2-yl]-7-fluoro-1H-indole-3-sulfonamide] came in with an IC50 of 0.017 µM. For `COc1nc(NS(=O)(=O)c2c[nH]c3cc(Cl)ccc23)nc(OC)c1CCS(C)(=O)=O` [Example 281, 6-Chloro-N-[4,6-Dimethoxy-5-(2-Methylsulfonylethyl)Pyrimidin-2-Yl]-1H-Indole-3-Sulfonamide], the 50% inhibitory concentration (IC50) is 0.237 µM. Compound `COc1nc(NS(=O)(=O)c2c[nH]c3cc(Cl)ccc23)nc(OC)c1OCCF` [Example 53, 6-chloro-N-[5-(2-fluoroethoxy)-4,6-dimethoxy-pyrimidin-2-yl]-1H-indole-3-sulfonamide] showed an IC50 of 0.011 µM. As to `COc1nc(NS(=O)(=O)c2c[nH]c3cc(Br)ccc23)ncc1CC(F)F` [Example 88, 6-bromo-N-[5-(2,2-difluoroethyl)-4-methoxy-pyrimidin-2-yl]-1H-indole-3-sulfonamide], the IC50 worked out at 0.033 µM. Take `COc1nc(NS(=O)(=O)c2c[nH]c3nc(Br)ccc23)nc(OC)c1OC(F)F` [Example 172, 6-bromo-N-[5-(difluoromethoxy)-4,6-dimethoxy-pyrimidin-2-yl]-1h-pyrrolo[2,3-b]pyridine-3-sulfonamide]: the IC50 was 0.015 µM. The result for `COc1nc(NS(=O)(=O)c2c[nH]c3c(F)c(Cl)ccc23)ncc1CCC(F)F` [Example 207, 6-chloro-N-[5-(3,3-difluoropropyl)-4-methoxy-pyrimidin-2-yl]-7-fluoro-1H-indole-3-sulfonamide] reads 0.014 µM; that for `COc1nc(NS(=O)(=O)c2c[nH]c3cc(C(F)(F)F)ccc23)ncc1CC(F)F` [Example 190, N-[5-(2,2-difluoroethyl)-4-methoxy-pyrimidin-2-yl]-6-(trifluoromethyl)-1H-indole-3-sulfonamide], 0.106 µM. The result for `COc1nc(NS(=O)(=O)c2c[nH]c3cc(Cl)ccc23)ncc1OCCC(F)F` [Example 39, 6-chloro-N-[5-(3,3-difluoropropoxy)-4-methoxy-pyrimidin-2-yl]-1H-indole-3-sulfonamide] reads 0.287 µM; that for `COc1nc(NS(=O)(=O)c2c[nH]c3cc(Cl)ccc23)ncc1C` [Example 26, 6-chloro-N-(4-methoxy-5-methyl-pyrimidin-2-yl)-1H-indole-3-sulfonamide], 0.809 µM; that for `COc1nc(NS(=O)(=O)c2c[nH]c3c(C(F)F)c(Cl)ccc23)ncc1CC(F)F` [Example 214, 6-chloro-N-[5-(2,2-difluoroethyl)-4-methoxy-pyrimidin-2-yl]-7-(difluoromethyl)-1H-indole-3-sulfonamide], 0.038 µM. The result for `COc1nc(NS(=O)(=O)c2c[nH]c3cc(Cl)ccc23)nc(OC)c1C1CC1` [Example 69, 6-chloro-N-(5-cyclopropyl-4,6-dimethoxy-pyrimidin-2-yl)-1H-indole-3-sulfonamide] reads 0.014 µM.

`COc1nc(NS(=O)(=O)c2c[nH]c3cc(Cl)ccc23)ncc1OC(F)(F)CF` [Example 41, 6-chloro-N-[4-methoxy-5-(1,1,2-trifluoroethoxy)pyrimidin-2-yl]-1H-indole-3-sulfonamide] had a half-maximal inhibitory concentration (IC50) of 0.021 µM. The result for `COc1nc(NS(=O)(=O)c2c[nH]c3c(F)c(Cl)ccc23)ncc1CCC#N` [Example 216, 6-chloro-N-[5-(2-cyanoethyl)-4-methoxy-pyrimidin-2-yl]-7-fluoro-1H-indole-3-sulfonamide] reads 0.043 µM; that for `COc1nc(NS(=O)(=O)c2c[nH]c3c(C(F)F)c(Cl)ccc23)ncc1OCCF` [Example 4, 6-chloro-7-(difluoromethyl)-N-[5-(2-fluoroethoxy)-4-methoxy-pyrimidin-2-yl]-1H-indole-3-sulfonamide], 0.034 µM; that for `COc1nc(NS(=O)(=O)c2c[nH]c3c(Br)c(Cl)ccc23)ncc1CCC(F)F` [Example 183, 7-bromo-6-chloro-N-[5-(3,3-difluoropropyl)-4-methoxy-pyrimidin-2-yl]-1H-indole-3-sulfonamide], 0.023 µM.

The record behind these values is patent US20240025883A1, “PYRIMIDIN-2-YL SULFONAMIDE DERIVATIVES” (Hoffmann-La Roche Inc., priority 2021, published 2024).
